“And” between values parts separate entries of the source, which are not always exact repeats. Equal entries are not always repeated.
Assays:
Plasmodium falciparum [1] = experiment: Hit confirmation in dose-response curve in NF54 pLDH assay, at 72h; assay type: functional, organism-based, Erythrocyte; parameters: timepoint 72 hour
Plasmodium falciparum [2] = experiment: Hit confirmation in dose-response curve in Dd2 pLDH assay, at 72h; assay type: functional, organism-based, Erythrocyte; parameters: timepoint 72 hour
HepG2 [3] = experiment: (§1) Hit confirmation in dose-response curve in HepG2 cytotoxicity assay, at 72h; assay type: toxicity, cell-based, Homo sapiens; parameters: timepoint 72 hour; conditions: hepg2
HepG2 [4] = experiment: (§2) Re-testing in dose-response curve in HepG2 cytotoxicity assay, at 72h; assay type: toxicity, cell-based, Homo sapiens; parameters: timepoint 72 hour; conditions: hepg2
Plasmodium falciparum [5] = experiment: Hit confirmation in dose-response curve in NF54 nanoGlo assay, at 72h; assay type: functional, organism-based, Erythrocyte; parameters: timepoint 72 hour
Plasmodium falciparum [6] = experiment: Re-testing in dose-response curve in Dd2 pLDH assay, at 72h; assay type: functional, organism-based, Erythrocyte; parameters: timepoint 72 hour
Plasmodium falciparum [7] = experiment: Hit confirmation in dose-response curve in NF54 nanoGlo assay, at 12h; assay type: functional, organism-based, Erythrocyte; parameters: timepoint 12 hour
Plasmodium falciparum [8] = experiment: Re-testing in dose-response curve in 3D7 pLDH assay, at 72h; assay type: functional, organism-based, Erythrocyte; parameters: timepoint 72 hour
[9] = as §1; assay type: toxicity, cell-based, Homo sapiens; parameters: timepoint 72 hour; conditions: human, HepG2 cells
[10] = as §2; assay type: toxicity, cell-based, Homo sapiens; parameters: timepoint 72 hour; conditions: human, HepG2 cells
[11] = Plasmodium falciparum, Dd2, Erythrocyte, 72 h
[12] = Plasmodium falciparum, NF54, Erythrocyte, 72 h
[13] = Plasmodium falciparum, NF54, Erythrocyte, 12 h
[14] = Plasmodium falciparum, 3D7, Erythrocyte, 72 h

IC50 (Plasmodium falciparum [1]; erythrocyte) [nM]	IC50 (Plasmodium falciparum [2]; erythrocyte) [nM]	IC50 (Plasmodium falciparum [5]; erythrocyte) [nM]	IC50 (Plasmodium falciparum [6]; [11]) [nM]	IC50 (Plasmodium falciparum [6]; erythrocyte)	IC50 (Plasmodium falciparum [7]; erythrocyte) [nM]	IC50 (Plasmodium falciparum [8]; erythrocyte)	IC50 (Plasmodium falciparum [1]; [12]) [nM]	IC50 (Plasmodium falciparum [2]; [11]) [nM]	IC50 (Plasmodium falciparum [5]; [12]) [nM]	IC50 (Plasmodium falciparum [7]; [13]) [nM]	IC50 (Plasmodium falciparum [8]; [14]) [nM]	SMILES	IC50 (HepG2 [3]) [nM]	IC50 (HepG2 [4]) [nM]	IC50 at 72 h [9] [nM]	IC50 at 72 h [10] [nM]
2690	1580	1780	949	923 nM	3980	–	–	–	–	–	–	CC(C)c1ccc(-c2nc(CN3CCCCC3)cc(CN3CCCCC3)c2O)cc1	> 10000	> 25000	–	–
–	–	–	11500	10700 nM and 8370 nM and 8120 nM	–	593 nM [middle of 6 runs]	3890	1580	1480	3720	–	CCOc1cc(C(=O)NC2CCN(CC3CCCC3)CC2)cc(-c2ccccc2)c1OC	–	10300	> 10000	10000
–	–	–	1380	–	–	633 nM [middle of 4 runs]	891	692	724	1700	–	C[C@@H](CNC1CCN(C2CCN(C)CC2)CC1)c1cccc(Cl)c1	–	8180	> 10000	9550
–	–	–	1050	937 nM	–	291 nM	4900	955	> 10000	> 10000	254	O=C(n1nnc2cc(Cl)c(Cl)cc21)C(F)(F)F	–	24800	> 10000	21000
–	–	–	1370	1410 nM	–	620 nM [middle of 4 runs]	1550	1380	1820	4790	–	CCCc1cccc(CNC2CCN(C3CCN(C)CC3)CC2)c1	–	7920	> 10000	11000
–	–	–	1740	1760 nM	–	360 nM	724	1660	1020	> 10000	460	CN(C)C1(CNc2nc(C(F)(F)F)nc3cc(F)ccc23)CCCCCC1	–	9280	> 10000	8910
